Test results from US12030883B2, “Hetero-tricyclic compounds as inhibitors of KRAS” (Incyte Corporation, priority 2021, dated 2024).

Tests used:
KRAS G12D [1] = target: T1, KRAS G12D (Homo sapiens, UniProt P01116, G12D); assay: GDP-GTP exchange assay, KRAS G12D (bodipy-GDP/GppNHp, SOS1); type: biochemical; settings: bodipy-loaded KRAS G12D 2.5 nM, 4 hours pre-incubation with inhibitor, SOS1 150 nM, GppNHp 500 uM; read-out: G12D_exchange (KRAS_G12D exchange assay IC50)
Experimental: (§1) The inhibitor potency of the exemplified compounds was determined in a fluorescence based guanine nucleotide exchange assay, which measures the exchange of bodipy-GDP (fluorescently labeled GDP) for GppNHp (Non-hydrolyzable GTP analog) to generate the active state of KRAS in the presence of SOS1 (guanine nucleotide exchange factor). Inhibitors were serially diluted in DMSO and a volume of 0.1 μL was transferred to the wells of a black low volume 384-well plate. Five μL/well volume of bodipy-loaded KRAS G12D or G12V diluted to a final concentration of 2.5 nM in assay buffer (25 mM Hepes pH 7.5, 50 mM NaCl, 10 mM MgCl2 and 0.01% Brij-35) was added to the plate and pre-incubated with inhibitor for 4 hours (G12D) or 3 hours (G12V) at ambient temperature. A cyclic peptide described to selectively bind G12D mutant (Sakamoto et al., BBRC 484.3 (2017), 605-611) or internal compounds with confirmed binding were used as positive controls in the assay plates. The exchange was initiated by the addition of a 5 μL/well volume containing 1 mM GppNHp and 300 nM SOS1 in assay buffer. The 10 μL/well reaction concentration of the bodipy-loaded KRAS G12D or G12V, GppNHp, and SOS1 were 2.5 nM, 500 uM, and 150 nM, respectively.
(§2) Either GraphPad prism or XLfit was used to analyze the data. The IC50 values were derived by fitting the data to a four parameter logistic equation producing a sigmoidal dose-response curve with a variable Hill coefficient. Prism equation: Y=Bottom+(Top−Bottom)/(1+10^((LogIC50-X)*Hill slope)); XLfit equation: Y=(A+((B−A)/(1+((X/C)^D)))) where X is the logarithm of inhibitor concentration and Y is the response.

KRAS G12D [2] = target: T1, KRAS G12D; assay: KRAS_G12D pERK assay (cellular pERK HTRF assay); type: cell-based; parameters: host or cells: A427 or HPAF-II; settings: KRAS G12D cells (A427, HPAF-II named in method), 2 hours incubation, Phospho-ERK 1/2 HTRF; read-out: G12D_PERK (KRAS_G12D pERK assay IC50)
Experimental: MIA PaCa-2 (KRAS G12C; ATCC® CRL-1420), A427 (KRAS G12D; ATCC® HTB53), HPAF-II (KRAS G12D; ATCC® CRL-1997) and NCI-H838 (KRAS WT; ATCC® CRL-5844) cells are purchased from ATCC and maintained in RPMI 1640 media supplemented with 10% FBS (Gibco/Life Technologies). The cells are plated at 5000 cells per well (8 uL) into Greiner 384-well low volume, flat-bottom, tissue culture treated white plates and incubated overnight at 37° C., 5% CO2. The next morning, test compound stock solutions are diluted in media at 3× the final concentration, and 4 uL are added to the cells. The plate is mixed by gentle rotation for 30 seconds (250 rpm) at room temperature. The cells are incubated with the KRAS G12C and G12D compounds for 4 hours or 2 hours respectively at 37° C., 5% CO2.
4 uL of 4× lysis buffer with blocking reagent (1:25) (Cisbio) are added to each well and plates are rotated gently (300 rpm) for 30 minutes at room temperature. 4 uL per well of Cisbio anti Phospho-ERK 1/2 d2 is mixed with anti Phospho-ERK 1/2 Cryptate (1:1) are added to each well, mixed by rotation and incubated overnight in the dark at room temperature. Plates are read on the Pherastar plate reader at 665 nm and 620 nm wavelengths. IC50 determination is performed by fitting the curve of inhibitor percent inhibition versus the log of the inhibitor concentration using the GraphPad Prism 7 software.

KRAS G12V = KRAS G12V (Homo sapiens, UniProt P01116, G12V); assay: GDP-GTP exchange assay, KRAS G12V (bodipy-GDP/GppNHp, SOS1); type: biochemical; settings: bodipy-loaded KRAS G12V 2.5 nM, 3 hours pre-incubation with inhibitor, SOS1 150 nM, GppNHp 500 uM; read-out: G12V_exchange (KRAS_G12V exchange assay IC50)
KRAS G12V, sequence (P01116 1-188 isoform P01116-2 G12V): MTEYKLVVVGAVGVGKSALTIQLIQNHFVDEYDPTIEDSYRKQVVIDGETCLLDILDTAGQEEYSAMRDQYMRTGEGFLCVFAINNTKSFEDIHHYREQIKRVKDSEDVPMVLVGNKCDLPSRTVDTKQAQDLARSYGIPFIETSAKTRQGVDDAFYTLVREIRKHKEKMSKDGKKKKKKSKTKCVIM
Experimental: as §1, §2

T1 sequence (P01116 1-188 isoform P01116-2 G12D): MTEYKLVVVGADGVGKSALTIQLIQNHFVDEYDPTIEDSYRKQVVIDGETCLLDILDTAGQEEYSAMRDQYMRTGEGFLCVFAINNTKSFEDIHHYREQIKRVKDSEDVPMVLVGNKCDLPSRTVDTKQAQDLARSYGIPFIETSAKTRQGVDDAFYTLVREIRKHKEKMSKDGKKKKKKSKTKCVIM

Compound	IC50 (KRAS G12D [1])	IC50 (KRAS G12D [2])	IC50 (KRAS G12V)
C[C@H](Oc1nc2c(F)c(-c3cccc(Cl)c3Cl)c(CCC#N)cc2c2c1c(=O)c(-c1cnn(C)c1)cn2[C@H]1[C@H]2CN[C@@H]1C2)[C@@H]1CCCN1C (single isomer, unassigned) [Example 24b]	≤ 100 nM	100 to 1000 nM	≤ 100 nM
Cc1cc2c(nc(O[C@@H](C)[C@@H]3CCCN3C)c3c(=O)c(Nc4cnn(C)c4)cn([C@H]4[C@H]5CN[C@@H]4C5)c32)c(F)c1-c1cccc2c1C(C#N)CCC2 (single isomer, unassigned) [Example 26b]	≤ 100 nM	5000 to 10000 nM	100 to 1000 nM
Cc1cc2c(nc(O[C@@H](C)[C@@H]3CCCN3C)c3c(=O)ccn([C@H]4[C@H]5CN[C@@H]4C5)c32)c(F)c1-c1cccc2c1C(C#N)CCC2 (stereo partly drawn) [Example 23, 8-(1-((1R,4R,5S)-2-azabicyclo[2.1.1]hexan-5-yl)-7-fluoro-9-methyl-5-((S)-1-((S)-1-methylpyrrolidin-2-yl)ethoxy)-4-oxo-1,4-dihydrobenzo[h][1,6]naphthyridin-8-yl)-1,2,3,4-tetrahydronaphthalene-1-carbonitrile]	≤ 100 nM	≤ 100 nM	≤ 100 nM
